{
  "source": "ChEMBL document CHEMBL5653615",
  "about": "(J Biol Chem, 2013)",
  "key": {"[1]": {"molecular_target": "Mitogen-activated protein kinase kinase kinase 7 (Homo sapiens) (UniProt O43318)", "test": "Inhibition of human TAK1 at 500 nM by HotSpot assay relative to control"}, "[2]": {"molecular_target": "Ribosomal protein S6 kinase alpha-4 (Homo sapiens) (UniProt O75676)", "sequence (O75676 whole entry, looked up)": "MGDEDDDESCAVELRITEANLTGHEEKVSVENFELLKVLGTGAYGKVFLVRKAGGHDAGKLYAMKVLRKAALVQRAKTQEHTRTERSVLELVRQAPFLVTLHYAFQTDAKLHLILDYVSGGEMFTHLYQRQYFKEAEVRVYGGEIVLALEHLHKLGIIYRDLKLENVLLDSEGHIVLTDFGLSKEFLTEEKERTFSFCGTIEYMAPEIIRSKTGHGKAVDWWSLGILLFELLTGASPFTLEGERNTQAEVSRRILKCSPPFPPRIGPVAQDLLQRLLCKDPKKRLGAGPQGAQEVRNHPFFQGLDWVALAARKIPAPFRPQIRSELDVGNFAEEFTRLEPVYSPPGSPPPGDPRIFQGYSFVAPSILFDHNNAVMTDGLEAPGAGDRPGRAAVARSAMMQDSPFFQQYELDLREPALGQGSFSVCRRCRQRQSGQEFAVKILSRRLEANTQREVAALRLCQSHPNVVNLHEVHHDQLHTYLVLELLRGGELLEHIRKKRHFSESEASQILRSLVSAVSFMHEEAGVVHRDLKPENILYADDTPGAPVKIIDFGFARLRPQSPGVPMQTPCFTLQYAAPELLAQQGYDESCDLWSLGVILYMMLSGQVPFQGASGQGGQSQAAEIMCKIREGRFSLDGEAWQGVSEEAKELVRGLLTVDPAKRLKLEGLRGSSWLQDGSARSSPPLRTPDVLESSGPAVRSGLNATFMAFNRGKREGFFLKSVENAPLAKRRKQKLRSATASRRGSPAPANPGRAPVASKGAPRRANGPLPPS", "test": "Inhibition of human RPS6KA4 at 500 nM by HotSpot assay relative to control"}, "[3]": {"molecular_target": "Fibroblast growth factor receptor 2 (Homo sapiens) (UniProt P21802)", "sequence (P21802 22-821 limits assumed)": "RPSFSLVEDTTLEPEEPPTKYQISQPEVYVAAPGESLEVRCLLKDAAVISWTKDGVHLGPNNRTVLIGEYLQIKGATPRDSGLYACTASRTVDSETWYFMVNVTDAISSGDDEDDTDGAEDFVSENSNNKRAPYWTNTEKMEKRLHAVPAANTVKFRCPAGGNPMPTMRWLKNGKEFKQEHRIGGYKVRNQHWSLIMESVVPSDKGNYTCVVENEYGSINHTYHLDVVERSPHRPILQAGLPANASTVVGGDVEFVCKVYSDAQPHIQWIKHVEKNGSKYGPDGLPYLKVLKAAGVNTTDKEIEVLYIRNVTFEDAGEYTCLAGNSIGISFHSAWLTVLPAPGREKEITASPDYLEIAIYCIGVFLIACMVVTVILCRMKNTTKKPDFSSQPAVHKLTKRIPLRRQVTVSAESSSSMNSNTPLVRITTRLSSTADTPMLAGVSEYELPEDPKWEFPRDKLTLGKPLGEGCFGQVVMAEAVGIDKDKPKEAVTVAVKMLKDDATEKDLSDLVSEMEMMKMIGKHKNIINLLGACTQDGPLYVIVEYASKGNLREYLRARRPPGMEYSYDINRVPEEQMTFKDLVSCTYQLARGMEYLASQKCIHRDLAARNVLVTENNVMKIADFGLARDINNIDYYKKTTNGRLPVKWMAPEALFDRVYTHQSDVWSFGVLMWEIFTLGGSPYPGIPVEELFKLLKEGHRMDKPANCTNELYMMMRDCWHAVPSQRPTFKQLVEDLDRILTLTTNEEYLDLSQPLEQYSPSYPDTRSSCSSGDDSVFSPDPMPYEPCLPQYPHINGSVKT", "test": "Inhibition of human FGFR2 at 500 nM by HotSpot assay relative to control"}, "[4]": {"molecular_target": "SRSF protein kinase 1 (Homo sapiens) (UniProt Q96SB4)", "test": "Inhibition of human SRPK1 at 500 nM by HotSpot assay relative to control"}, "[5]": {"molecular_target": "Mitogen-activated protein kinase kinase kinase kinase 5 (Homo sapiens) (UniProt Q9Y4K4)", "test": "Inhibition of human KHS at 500 nM by HotSpot assay relative to control"}, "[6]": {"molecular_target": "Vascular endothelial growth factor receptor 2 (Homo sapiens) (UniProt P35968)", "sequence (P35968 whole entry)": "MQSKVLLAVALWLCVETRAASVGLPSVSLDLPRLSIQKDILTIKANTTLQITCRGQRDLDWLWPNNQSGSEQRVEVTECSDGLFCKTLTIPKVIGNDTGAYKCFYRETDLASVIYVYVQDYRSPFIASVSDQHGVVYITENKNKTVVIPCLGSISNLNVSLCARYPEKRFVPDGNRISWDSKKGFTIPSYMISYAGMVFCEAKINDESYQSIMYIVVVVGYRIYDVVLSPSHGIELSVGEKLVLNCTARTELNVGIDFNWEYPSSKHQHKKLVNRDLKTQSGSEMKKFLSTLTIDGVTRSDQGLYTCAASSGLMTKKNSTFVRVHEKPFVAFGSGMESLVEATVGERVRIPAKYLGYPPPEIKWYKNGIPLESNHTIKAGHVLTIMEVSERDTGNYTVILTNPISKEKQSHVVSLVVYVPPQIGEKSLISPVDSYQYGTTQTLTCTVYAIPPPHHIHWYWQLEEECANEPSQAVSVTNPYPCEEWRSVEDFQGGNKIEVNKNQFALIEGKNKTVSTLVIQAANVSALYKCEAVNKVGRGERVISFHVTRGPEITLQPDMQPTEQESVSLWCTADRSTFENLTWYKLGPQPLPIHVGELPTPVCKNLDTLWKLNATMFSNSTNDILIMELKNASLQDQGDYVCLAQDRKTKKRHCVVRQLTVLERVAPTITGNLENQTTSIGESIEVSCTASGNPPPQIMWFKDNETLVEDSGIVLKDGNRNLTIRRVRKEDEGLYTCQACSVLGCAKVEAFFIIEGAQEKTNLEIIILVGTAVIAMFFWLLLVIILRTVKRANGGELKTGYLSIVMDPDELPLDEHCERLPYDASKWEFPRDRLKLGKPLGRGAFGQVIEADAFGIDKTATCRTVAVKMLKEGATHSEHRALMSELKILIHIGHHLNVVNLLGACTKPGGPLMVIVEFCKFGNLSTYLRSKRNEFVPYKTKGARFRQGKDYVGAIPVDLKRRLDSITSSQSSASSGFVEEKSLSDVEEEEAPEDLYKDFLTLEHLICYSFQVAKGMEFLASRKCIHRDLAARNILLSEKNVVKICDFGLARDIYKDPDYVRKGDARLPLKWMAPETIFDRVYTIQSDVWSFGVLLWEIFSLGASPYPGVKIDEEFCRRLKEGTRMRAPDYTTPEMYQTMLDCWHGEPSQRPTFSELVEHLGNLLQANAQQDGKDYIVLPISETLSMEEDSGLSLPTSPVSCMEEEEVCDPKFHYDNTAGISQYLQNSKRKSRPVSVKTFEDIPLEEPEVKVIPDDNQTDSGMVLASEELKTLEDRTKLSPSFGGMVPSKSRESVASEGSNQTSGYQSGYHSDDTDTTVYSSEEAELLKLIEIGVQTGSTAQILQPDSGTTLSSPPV", "test": "Inhibition of human KDR at 500 nM by HotSpot assay relative to control"}, "[7]": {"molecular_target": "T1, Testis-specific serine/threonine-protein kinase 1 (Homo sapiens) (UniProt Q9BXA7)", "T1 sequence (whole entry)": "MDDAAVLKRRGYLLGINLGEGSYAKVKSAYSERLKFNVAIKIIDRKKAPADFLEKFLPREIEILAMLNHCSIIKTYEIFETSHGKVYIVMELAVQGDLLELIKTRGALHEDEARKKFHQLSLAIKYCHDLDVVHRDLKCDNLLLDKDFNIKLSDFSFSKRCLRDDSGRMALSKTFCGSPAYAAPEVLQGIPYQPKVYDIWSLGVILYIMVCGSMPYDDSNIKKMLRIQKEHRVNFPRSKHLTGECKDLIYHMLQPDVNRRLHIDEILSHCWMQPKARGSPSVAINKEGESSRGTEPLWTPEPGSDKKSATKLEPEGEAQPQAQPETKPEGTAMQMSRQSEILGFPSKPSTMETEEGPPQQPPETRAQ", "test": "Inhibition of human TSSK1 at 500 nM by HotSpot assay relative to control"}, "[8]": {"molecular_target": "T2, Tyrosine-protein kinase ITK/TSK (Homo sapiens) (UniProt Q08881)", "T2 sequence (whole entry)": "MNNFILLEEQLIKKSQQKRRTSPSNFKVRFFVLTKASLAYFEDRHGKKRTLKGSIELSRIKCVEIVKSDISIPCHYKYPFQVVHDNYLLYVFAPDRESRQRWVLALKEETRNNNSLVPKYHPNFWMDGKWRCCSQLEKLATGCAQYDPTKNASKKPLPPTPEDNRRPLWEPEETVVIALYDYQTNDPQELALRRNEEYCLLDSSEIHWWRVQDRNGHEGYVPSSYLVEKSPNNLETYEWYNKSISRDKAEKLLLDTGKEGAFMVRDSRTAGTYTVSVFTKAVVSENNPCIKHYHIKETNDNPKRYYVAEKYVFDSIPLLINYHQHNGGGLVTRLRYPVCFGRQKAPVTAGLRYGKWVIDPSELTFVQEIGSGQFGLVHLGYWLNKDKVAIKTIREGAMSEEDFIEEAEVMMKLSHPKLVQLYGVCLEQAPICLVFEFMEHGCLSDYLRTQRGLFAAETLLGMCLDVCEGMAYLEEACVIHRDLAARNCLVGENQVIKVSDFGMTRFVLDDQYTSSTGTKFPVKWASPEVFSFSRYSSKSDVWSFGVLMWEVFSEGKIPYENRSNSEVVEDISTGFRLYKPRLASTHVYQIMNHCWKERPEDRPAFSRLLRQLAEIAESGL", "test": "Inhibition of human ITK at 500 nM by HotSpot assay relative to control"}, "[9]": {"molecular_target": "Homeodomain-interacting protein kinase 2 (Homo sapiens) (UniProt Q9H2X6)", "test": "Inhibition of human HIPK2 at 500 nM by HotSpot assay relative to control"}, "[10]": {"molecular_target": "Misshapen-like kinase 1 (Homo sapiens) (UniProt Q8N4C8)", "sequence (Q8N4C8 whole entry, looked up)": "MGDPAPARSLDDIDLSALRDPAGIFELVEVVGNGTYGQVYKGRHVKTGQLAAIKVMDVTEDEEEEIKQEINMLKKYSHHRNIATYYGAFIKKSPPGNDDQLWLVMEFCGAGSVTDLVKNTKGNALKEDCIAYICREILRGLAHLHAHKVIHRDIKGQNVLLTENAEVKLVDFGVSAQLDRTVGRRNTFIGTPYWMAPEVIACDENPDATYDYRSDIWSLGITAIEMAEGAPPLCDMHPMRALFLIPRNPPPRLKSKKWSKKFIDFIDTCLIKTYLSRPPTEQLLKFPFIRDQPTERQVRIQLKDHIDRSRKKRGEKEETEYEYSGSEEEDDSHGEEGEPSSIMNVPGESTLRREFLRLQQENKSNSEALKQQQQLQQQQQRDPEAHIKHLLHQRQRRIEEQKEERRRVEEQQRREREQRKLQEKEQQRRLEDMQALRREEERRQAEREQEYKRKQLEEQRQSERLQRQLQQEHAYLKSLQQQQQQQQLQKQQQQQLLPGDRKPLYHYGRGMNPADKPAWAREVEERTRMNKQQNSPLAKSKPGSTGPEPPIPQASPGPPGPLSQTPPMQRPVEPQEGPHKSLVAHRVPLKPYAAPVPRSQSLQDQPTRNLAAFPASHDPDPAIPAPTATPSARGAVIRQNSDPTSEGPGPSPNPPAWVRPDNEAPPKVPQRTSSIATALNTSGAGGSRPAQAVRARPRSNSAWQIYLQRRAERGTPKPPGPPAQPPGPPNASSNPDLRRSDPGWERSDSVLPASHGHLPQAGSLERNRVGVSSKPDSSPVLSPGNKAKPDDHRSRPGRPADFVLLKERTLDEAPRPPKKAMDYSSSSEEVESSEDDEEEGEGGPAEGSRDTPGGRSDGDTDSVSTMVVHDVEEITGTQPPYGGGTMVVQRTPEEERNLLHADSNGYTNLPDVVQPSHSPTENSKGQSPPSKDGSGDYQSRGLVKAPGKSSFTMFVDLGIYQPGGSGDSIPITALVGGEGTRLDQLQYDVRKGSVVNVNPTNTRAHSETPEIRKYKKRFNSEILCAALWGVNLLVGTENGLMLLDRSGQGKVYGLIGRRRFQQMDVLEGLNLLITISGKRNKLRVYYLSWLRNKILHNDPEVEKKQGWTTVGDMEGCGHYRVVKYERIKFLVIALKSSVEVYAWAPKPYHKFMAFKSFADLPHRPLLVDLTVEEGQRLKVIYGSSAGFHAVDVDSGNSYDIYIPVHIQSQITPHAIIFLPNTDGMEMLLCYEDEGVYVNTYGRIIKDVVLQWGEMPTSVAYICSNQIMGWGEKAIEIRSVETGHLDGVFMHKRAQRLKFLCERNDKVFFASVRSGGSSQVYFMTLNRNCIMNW", "test": "Inhibition of human MINK1 at 500 nM by HotSpot assay relative to control"}, "[11]": {"molecular_target": "Insulin receptor (Homo sapiens) (UniProt P06213)", "test": "Inhibition of human IR at 500 nM by HotSpot assay relative to control"}, "[12]": {"molecular_target": "CDK6/cyclin D3 (Homo sapiens) (UniProt P30281+Q00534)", "test": "Inhibition of human CDK6/cyclin D3 at 500 nM by HotSpot assay relative to control", "type": "protein-complex assay"}, "[13]": {"molecular_target": "T3, Aurora kinase A (Homo sapiens) (UniProt O14965)", "T3 sequence (whole entry)": "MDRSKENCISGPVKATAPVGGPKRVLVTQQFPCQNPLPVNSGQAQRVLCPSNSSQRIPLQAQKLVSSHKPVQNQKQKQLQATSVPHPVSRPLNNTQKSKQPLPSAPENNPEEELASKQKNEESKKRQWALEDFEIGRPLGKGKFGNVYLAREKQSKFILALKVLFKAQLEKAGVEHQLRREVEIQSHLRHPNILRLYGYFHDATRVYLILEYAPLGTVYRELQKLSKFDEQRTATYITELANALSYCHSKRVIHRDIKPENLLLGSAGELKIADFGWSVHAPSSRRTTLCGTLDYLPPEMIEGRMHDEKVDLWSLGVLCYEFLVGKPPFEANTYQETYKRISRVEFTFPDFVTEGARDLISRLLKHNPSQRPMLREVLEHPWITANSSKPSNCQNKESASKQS", "test": "Inhibition of human Aurora A at 500 nM by HotSpot assay relative to control"}, "[14]": {"molecular_target": "Protein-tyrosine kinase 6 (Homo sapiens) (UniProt Q13882)", "test": "Inhibition of human BRK at 500 nM by HotSpot assay relative to control"}, "[15]": {"molecular_target": "Proto-oncogene tyrosine-protein kinase Src (Homo sapiens) (UniProt P12931)", "sequence (P12931 2-536 limits assumed)": "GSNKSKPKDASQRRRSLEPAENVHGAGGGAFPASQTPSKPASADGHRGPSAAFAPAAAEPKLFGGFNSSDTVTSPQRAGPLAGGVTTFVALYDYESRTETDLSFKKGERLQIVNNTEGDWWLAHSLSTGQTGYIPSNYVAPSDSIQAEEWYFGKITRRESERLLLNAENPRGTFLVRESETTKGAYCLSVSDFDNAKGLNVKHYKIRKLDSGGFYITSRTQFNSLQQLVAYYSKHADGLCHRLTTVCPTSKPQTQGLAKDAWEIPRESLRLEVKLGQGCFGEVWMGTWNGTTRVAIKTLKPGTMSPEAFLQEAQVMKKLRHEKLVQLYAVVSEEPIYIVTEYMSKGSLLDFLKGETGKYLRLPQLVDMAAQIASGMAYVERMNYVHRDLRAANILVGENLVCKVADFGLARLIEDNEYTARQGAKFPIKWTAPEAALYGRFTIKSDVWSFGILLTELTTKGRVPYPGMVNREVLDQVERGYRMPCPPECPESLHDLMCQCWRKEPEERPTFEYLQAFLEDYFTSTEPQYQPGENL", "test": "Inhibition of human c-Src at 500 nM by HotSpot assay relative to control"}},
  "data": [
    {"molecule": "Oc1n[nH]c2nnc(-c3c(-c4ccccc4)nn4ccccc34)cc12", "values": [
      {"measurement": "inhibition", "setting": "[1]", "value": -3.14, "unit": "%"},
      {"measurement": "inhibition", "setting": "[2]", "value": 1.99, "unit": "%"},
      {"measurement": "inhibition", "setting": "[3]", "value": -0.03, "unit": "%"},
      {"measurement": "inhibition", "setting": "[4]", "value": 10.4, "unit": "%"},
      {"measurement": "inhibition", "setting": "[5]", "value": 3.59, "unit": "%"},
      {"measurement": "inhibition", "setting": "[6]", "value": -5.2, "unit": "%"},
      {"measurement": "inhibition", "setting": "[7]", "value": -0.04, "unit": "%"},
      {"measurement": "inhibition", "setting": "[8]", "value": 6.55, "unit": "%"},
      {"measurement": "inhibition", "setting": "[9]", "value": -0.79, "unit": "%"},
      {"measurement": "inhibition", "setting": "[10]", "value": 2.28, "unit": "%"},
      {"measurement": "inhibition", "setting": "[11]", "value": 72.6, "unit": "%"},
      {"measurement": "inhibition", "setting": "[12]", "value": 1.59, "unit": "%"},
      {"measurement": "inhibition", "setting": "[13]", "value": 0.5, "unit": "%"},
      {"measurement": "inhibition", "setting": "[14]", "value": 0.52, "unit": "%"},
      {"measurement": "inhibition", "setting": "[15]", "value": -2.58, "unit": "%"}
    ]},
    {"molecule": "Nc1n[nH]c2nnc(-c3c(-c4ccccc4)nn4ccccc34)cc12", "values": [
      {"measurement": "inhibition", "setting": "[1]", "value": -1.47, "unit": "%"},
      {"measurement": "inhibition", "setting": "[2]", "value": 5.31, "unit": "%"},
      {"measurement": "inhibition", "setting": "[3]", "value": -1.79, "unit": "%"},
      {"measurement": "inhibition", "setting": "[4]", "value": 16.3, "unit": "%"},
      {"measurement": "inhibition", "setting": "[5]", "value": 49.7, "unit": "%"},
      {"measurement": "inhibition", "setting": "[6]", "value": -1.19, "unit": "%"},
      {"measurement": "inhibition", "setting": "[7]", "value": -1.56, "unit": "%"},
      {"measurement": "inhibition", "setting": "[8]", "value": 9.17, "unit": "%"},
      {"measurement": "inhibition", "setting": "[9]", "value": 0.35, "unit": "%"},
      {"measurement": "inhibition", "setting": "[10]", "value": 27.1, "unit": "%"},
      {"measurement": "inhibition", "setting": "[11]", "value": 21.7, "unit": "%"},
      {"measurement": "inhibition", "setting": "[12]", "value": 9.56, "unit": "%"},
      {"measurement": "inhibition", "setting": "[13]", "value": -0.77, "unit": "%"},
      {"measurement": "inhibition", "setting": "[14]", "value": 9.19, "unit": "%"},
      {"measurement": "inhibition", "setting": "[15]", "value": -0.45, "unit": "%"}
    ]}
  ]
}
